Here are results for 38 compounds from patent publication US20230080054A1 (ILDONG PHARMACEUTICAL CO., LTD., priority 2021, published 2023).

For assay [1], the target named is T1, human ANO6 (Homo sapiens, UniProt Q4KMQ2).
T1 construct: expressed in transfected cells
T1 sequence (Q4KMQ2 1-931 isoform Q4KMQ2-2): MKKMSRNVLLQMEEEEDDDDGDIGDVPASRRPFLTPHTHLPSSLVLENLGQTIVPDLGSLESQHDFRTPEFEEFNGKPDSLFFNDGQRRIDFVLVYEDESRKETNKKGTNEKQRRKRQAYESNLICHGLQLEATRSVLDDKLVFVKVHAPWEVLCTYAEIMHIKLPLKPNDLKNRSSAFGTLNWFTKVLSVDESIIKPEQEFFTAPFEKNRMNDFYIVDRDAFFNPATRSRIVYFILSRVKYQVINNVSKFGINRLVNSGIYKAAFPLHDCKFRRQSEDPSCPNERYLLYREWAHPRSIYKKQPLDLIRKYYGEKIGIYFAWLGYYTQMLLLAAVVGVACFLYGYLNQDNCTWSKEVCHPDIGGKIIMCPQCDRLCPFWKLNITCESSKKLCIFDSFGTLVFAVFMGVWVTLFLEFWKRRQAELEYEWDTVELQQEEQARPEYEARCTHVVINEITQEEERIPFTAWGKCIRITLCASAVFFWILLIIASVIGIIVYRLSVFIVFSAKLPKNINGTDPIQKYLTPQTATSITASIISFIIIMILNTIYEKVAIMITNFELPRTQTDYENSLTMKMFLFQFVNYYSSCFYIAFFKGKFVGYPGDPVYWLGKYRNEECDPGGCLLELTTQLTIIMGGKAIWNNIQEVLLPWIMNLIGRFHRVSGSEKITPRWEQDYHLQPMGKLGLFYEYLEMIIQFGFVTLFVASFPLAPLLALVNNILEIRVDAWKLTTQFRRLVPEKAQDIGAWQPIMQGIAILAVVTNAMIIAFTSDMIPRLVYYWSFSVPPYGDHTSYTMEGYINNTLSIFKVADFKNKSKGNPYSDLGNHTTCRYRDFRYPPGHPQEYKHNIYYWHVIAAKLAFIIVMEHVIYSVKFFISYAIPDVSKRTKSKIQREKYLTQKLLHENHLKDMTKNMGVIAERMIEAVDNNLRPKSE
The experiment in a line: YFP quenching assay (ANO6 ion channel activity). It is filed as cell-based. The note with it: 10 μM ionomycin; for inhibition at 1 µM: test compound 1 μM, read-out: Inhibition Level 1 μM; for inhibition at 30 µM: test compound 30 μM, read-out: Inhibition Level 30 μM. The gist of the method:
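FRT cells stably expressing human ANO6 and YFP-H148Q/I152L/F46L, preincubated 10 min at 40° C with compounds (1% DMSO) in PBS. Quench read every 0.4 s after injecting 140 mM SCN- with 10 μM ionomycin; % inhibition from the 3.6–7.6 s fluorescence difference, normalised to no-ionomycin (100%) and ionomycin-only (0%) wells, duplicate or triplicate.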

The target of assay [2] is T1, human ANO6. Kind of assay: LACT C2 assay (phosphatidylserine scramblase function assay). The class given is cell-based. The note with it: FRT cells expressing human ANO6, 10 μM ionomycin; for inhibition at 1 µM: test compound 1 μM, read-out: Inhibition Level 1 μM; for inhibition at 0.1 µM: test compound 100 nM, read-out: Inhibition Level 100 nM. The gist of the method:
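Inhibition was normalised between ionomycin-only (0%) and untreated (100%) wells, with triplicates averaged. Readout was background-corrected Lact-C2-GFP (500 nM) fluorescence from imaged cells. The cells were FRT cells stably expressing human ANO6, given compound at 1% DMSO for 10 min before a 10 min 10 μM ionomycin challenge.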

What is called inhibition is the percentage by which the read-out fell short of the control.

With `Cc1ccc(CNC(=O)c2cccc(Nc3cnc(-c4ccccc4)cn3)c2)o1` [Compound 1, N-[(5-methylfuran-2-yl)methyl]-3-[(5-phenylpyrazin-2-yl)amino]benzamide], the inhibition at 1 µM at human ANO6 [1] was 30 to 60%; on human ANO6 [2] it was ≥ 60%. Moreover, on human ANO6 [1], the inhibition at 30 µM was ≥ 60%.

On to `Cc1ccc(CNC(=O)c2cccc(Nc3ncc(-c4ccccc4)cn3)c2)o1` [Compound 2, N-[(5-methylfuran-2-yl)methyl]-3-[(5-phenylpyrimidin-2-yl)amino]benzamide], for which, at human ANO6 [1], the inhibition at 1 µM was 30 to 60% and the inhibition at 30 µM is ≥ 60%. Further, on human ANO6 [2], the inhibition at 0.1 µM is < 30% and the inhibition at 1 µM is ≥ 60%.

`Cc1ccc(CNC(=O)c2cccc(Nc3ccc(-c4ccccc4)cc3)c2)o1` [Compound 3, 3-({[1,1′-biphenyl]-4-yl}amino)-N-[(5-methylfuran-2-yl)methyl]benzamide]: on human ANO6 [1], the inhibition at 1 µM is ≥ 60% and the inhibition at 30 µM is ≥ 60%. Also, at human ANO6 [2], the inhibition at 0.1 µM is < 30% and the inhibition at 1 µM was ≥ 60%.

Turning to `Cc1ccc(CNC(=O)c2cccc(Nc3ccc(-c4ccccc4)cn3)c2)o1` [Compound 4, N-[(5-methylfuran-2-yl)methyl]-3-[(5-phenylpyridin-2-yl)amino]benzamide], on human ANO6 [1], the inhibition at 1 µM was ≥ 60% and the inhibition at 30 µM is ≥ 60%. Moreover, at human ANO6 [2], the inhibition at 0.1 µM was < 30% and the inhibition at 1 µM is ≥ 60%.

As for `Cc1ccc(CNC(=O)c2cccc(Nc3ccc(-c4ccccc4)nc3)c2)o1` [Compound 6, N-[(5-methylfuran-2-yl)methyl]-3-[(6-phenylpyridin-3-yl)amino]benzamide], on human ANO6 [1], the inhibition at 1 µM was ≥ 60% and the inhibition at 30 µM was ≥ 60%. Also, on human ANO6 [2], the inhibition at 1 µM fell in the range of 30 to 60%.

`Cc1ccc(CNC(=O)c2cccc(Nc3ccc(-c4ccoc4)nn3)c2)o1` [Compound 7, 3-{[6-(furan-3-yl)pyridazin-3-yl]amino}-N-[(5-methylfuran-2-yl)methyl]benzamide]: at human ANO6 [1], the inhibition at 1 µM was ≥ 60% and the inhibition at 30 µM was ≥ 60%. In addition, at human ANO6 [2], the inhibition at 0.1 µM is < 30% and the inhibition at 1 µM is ≥ 60%.

Consider `Cc1ccc(CNC(=O)c2cccc(Nc3ncc(-c4ccc(C(=O)O)cc4)cn3)c2)o1` [Compound 109, 4-{2-[(3-{[(5-methylfuran-2-yl)methyl]carbamoyl}phenyl)amino]pyrimidin-5-yl}benzoic acid], for which the inhibition at 1 µM at human ANO6 [1] was < 30%.

With `Cc1ccc(CNC(=O)c2cccc(Nc3ncc(-c4cc5ccccc5o4)cn3)c2)o1` [Compound 111, 3-{[5-(1-benzofuran-2-yl)pyrimidin-2-yl]amino}-N-[(5-methylfuran-2-yl)methyl]benzamide], on human ANO6 [1], the inhibition at 1 µM was < 30%.

Turning to `O=C(NCCc1ccccc1)c1cnc(Nc2ccc(-c3ccccc3)nn2)s1` [Compound 113, N-(2-phenylethyl)-2-[(6-phenylpyridazin-3-yl)amino]-1,3-thiazole-5-carboxamide], the inhibition at 1 µM on human ANO6 [1] is < 30%.

Take `CN(CCNC(=O)c1cccc(Nc2ccc(-c3ccccc3)nn2)c1)Cc1ccccc1` [Compound 124]: the inhibition at 1 µM at human ANO6 [1] was 30 to 60%.

`Cc1ccc(-c2ccc(Nc3cccc(C(=O)NCc4ccc(C)o4)c3)nn2)cc1` [Compound A7]: on human ANO6 [1], the inhibition at 1 µM is < 30% and the inhibition at 30 µM was ≥ 60%.

`COc1ccc(CNC(=O)c2cccc(Nc3ccc(-c4ccc(F)cc4)nn3)c2)c(OC)c1` [Compound A9]: at human ANO6 [1], the inhibition at 30 µM fell in the range of 30 to 60%.

Regarding `O=C(NCc1ccc2c(c1)OCO2)c1cccc(Nc2ccc(-c3ccc(F)cc3)nn2)c1` [Compound A17], on human ANO6 [1], the inhibition at 1 µM lay in the range of 30 to 60% and the inhibition at 30 µM is ≥ 60%.

As to `Cc1cccc(-c2cnc(Nc3cccc(C(=O)NCc4ccc(C)o4)c3)nc2)c1` [Compound A18], on human ANO6 [1], the inhibition at 1 µM is 30 to 60% and the inhibition at 30 µM lay within 30 to 60%.

`Cc1ccc(CNC(=O)c2cccc(Nc3ncc(-c4ccc(F)cc4)cn3)c2)o1` [Compound A19]: the inhibition at 30 µM on human ANO6 [1] was 30 to 60%.

As for `Cc1ccc(CNC(=O)c2cccc(Nc3ncc(-c4cccc(F)c4)cn3)c2)o1` [Compound A20], at human ANO6 [1], the inhibition at 1 µM was < 30% and the inhibition at 30 µM fell in the range of 30 to 60%.

For the compound `Cc1ccc(CNC(=O)c2cccc(Nc3ccnc(-c4cccc(F)c4)n3)c2)o1` [Compound A21], at human ANO6 [1], the inhibition at 30 µM was < 30%.

In the case of `Cc1ccc(-c2ccc(Nc3cccc(C(=O)NCc4ccc(F)cc4)c3)nn2)cc1` [Compound A23], at human ANO6 [1], the inhibition at 30 µM was in the range of 30 to 60%.

On to `Cc1ccc(CNC(=O)c2cccc(Nc3ccc(-c4cccc(F)c4)nn3)c2)cc1` [Compound A25], for which, on human ANO6 [1], the inhibition at 1 µM lay in the range of 30 to 60% and the inhibition at 30 µM is ≥ 60%.

With `Cc1ccc(-c2ccc(Nc3cccc(C(=O)NCc4ccc(Cl)cc4)c3)nn2)cc1` [Compound A28], the inhibition at 30 µM at human ANO6 [1] lay in the range of 30 to 60%.

For the compound `COc1cccc(CNC(=O)c2cccc(Nc3ccc(-c4ccc(F)cc4)nn3)c2)c1` [Compound A29], on human ANO6 [1], the inhibition at 1 µM lay in the range of 30 to 60% and the inhibition at 30 µM is ≥ 60%.

As for `Cc1ccc(-c2ccc(Nc3cccc(C(=O)NCc4ccc(Br)cc4)c3)nn2)cc1` [Compound A30], the inhibition at 30 µM on human ANO6 [1] was < 30%.

Regarding `Cc1ccc(-c2ccc(Nc3cccc(C(=O)NC(C)C)c3)nn2)cc1` [Compound A31], on human ANO6 [1], the inhibition at 1 µM lay within 30 to 60% and the inhibition at 30 µM is ≥ 60%.

Regarding `Cc1ccc(-c2ccc(Nc3cccc(C(=O)NCC(C)C)c3)nn2)cc1` [Compound A33], on human ANO6 [1], the inhibition at 1 µM was 30 to 60% and the inhibition at 30 µM is ≥ 60%.

Take `CCN(CCCNC(=O)c1cccc(Nc2ccc(-c3ccccc3)nn2)c1)Cc1ccccc1` [Compound A42]: on human ANO6 [1], the inhibition at 1 µM fell in the range of 30 to 60% and the inhibition at 30 µM is ≥ 60%.

For the compound `O=C(NC1CCCc2ccccc21)c1cccc(Nc2ccc(-c3ccccc3)nn2)c1` (stereo not drawn) [Compound A56], on human ANO6 [1], the inhibition at 1 µM was 30 to 60% and the inhibition at 30 µM is ≥ 60%.

Take `CCN(CC)CCCNC(=O)c1cccc(Nc2ccc(-c3ccccc3)nn2)c1` [Compound A59]: at human ANO6 [1], the inhibition at 1 µM was < 30% and the inhibition at 30 µM is 30 to 60%.

As for `COc1ccc(OC)c(CNC(=O)c2cccc(Nc3ccc(-c4ccccc4)nn3)c2)c1` [Compound A60], at human ANO6 [1], the inhibition at 1 µM was in the range of 30 to 60% and the inhibition at 30 µM was ≥ 60%.

`COc1ccc(CNC(=O)c2cccc(Nc3ccc(-c4ccccc4)nn3)c2)c(OC)c1` [Compound A61]: at human ANO6 [1], the inhibition at 1 µM was 30 to 60% and the inhibition at 30 µM is ≥ 60%.

On to `COCCCNC(=O)c1cccc(Nc2ccc(-c3ccccc3)nn2)c1` [Compound A69], for which, on human ANO6 [1], the inhibition at 1 µM lay within 30 to 60% and the inhibition at 30 µM is ≥ 60%.

`COc1ccccc1NC(=O)c1cccc(Nc2ccc(-c3ccccc3)nn2)c1` [Compound A71]: the inhibition at 30 µM on human ANO6 [1] was in the range of 30 to 60%.

On to `COc1cccc(C(C)NC(=O)c2cccc(Nc3ccc(-c4ccccc4)nn3)c2)c1` (stereo not drawn) [Compound A79], for which, on human ANO6 [1], the inhibition at 1 µM fell in the range of 30 to 60% and the inhibition at 30 µM was ≥ 60%.

Turning to `CCN(CC)c1ccc(CNC(=O)c2cccc(Nc3ncc(-c4cccc(F)c4)cn3)c2)cc1` [Compound A81], the inhibition at 1 µM at human ANO6 [1] lay within 30 to 60%.

As for `O=C(NC1CCCc2ccccc21)c1cccc(Nc2ncc(-c3cccc(F)c3)cn2)c1` (stereo not drawn) [Compound A82], the inhibition at 1 µM at human ANO6 [1] lay in the range of 30 to 60%.

With `O=C(NCC1CCCO1)c1cccc(Nc2ncc(-c3cccc(F)c3)cn2)c1` (stereo not drawn) [Compound A83], the inhibition at 1 µM on human ANO6 [1] was in the range of 30 to 60%.

With `NC(=O)c1ccc(Nc2ccc(-c3ccccc3)nn2)cc1` [Compound A86], on human ANO6 [1], the inhibition at 30 µM was 30 to 60%.

For `O=C(NCCc1ccccc1)c1cccc(Nc2ncc(-c3cccc(F)c3)cn2)c1` [Compound A88], on human ANO6 [1], the inhibition at 1 µM fell in the range of 30 to 60%.

As for `O=C(NCCN1CCCCC1)c1cccc(Nc2ccc(-c3ccccc3)nn2)c1` [Compound A90], the inhibition at 1 µM at human ANO6 [1] was < 30%.
